Source: the supplement of paper PMC10307832

These cell lines were tested with C[C@@H](C(=O)N[C@@H](C1CCCCC1)C(=O)N2CCC[C@H]2C(=O)N[C@@H]3[C@@H](CC4=CC=CC=C34)OCC#CC#CCO[C@@H]5CC6=CC=CC=C6[C@@H]5NC(=O)[C@@H]7CCCN7C(=O)[C@H](C8CCCCC8)NC(=O)[C@H](C)NC)NC [AZD5582] + CS(=O)(=O)CCNCc1ccc(-c2ccc3ncnc(Nc4ccc(OCc5cccc(F)c5)c(Cl)c4)c3c2)o1 [Lapatinib] (partner 2 µM) (assay: relative viability (nuclei count vs DMSO), 5 days (fraction); higher = more cells survive). Settings: first compound 0.001581 µM.
In short: (§1)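 Relative viability equals treated-well nuclei counts divided by vehicle-well nuclei counts. Counts came from 4× images of lung cancer cell lines grown in 1536-well plates for 5 days after pin-tool dosing on the day after seeding. Dosing used one drug alone or a fixed anchor-drug dose plus five library-drug doses (not always all listed) in √10 steps, and values are medians of duplicate plates.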

Cell Line	relative viability
NCI-H322M	0.678
NCI-H358	0.484
NCI-H460	0.836
NCI-H520	0.738
NCI-H596	0.851
NCI-H647	0.839
NCI-H650	0.592
NCI-H661	0.38
NCI-H727	0.613
NCI-H838	0.823
NCI-H1355	0.945
NCI-H1437	0.616
NCI-H1563	0.909
NCI-H1651	0.862
NCI-H1666	0.488
NCI-H1734	1.03
NCI-H1755	1.01
NCI-H1792	0.862

Cell Line	relative viability
NCI-H1915	0.923
NCI-H1944	0.767
NCI-H1975	1.01
NCI-H1993	0.792
NCI-H2009	0.632
NCI-H2023	0.64
NCI-H2085	0.667
NCI-H2087	0.929
NCI-H2126	0.845
NCI-H2228	0.614
NCI-H2347	0.882
NCI-H2405	1.11
NCI-H3122	0.966
PC-3 [JPC-3]	0.423
PC-14	0.301
RERF-LC-KJ	0.732
SK-LU-1	0.645

Same assay, conditions: first compound 0.005 µM

Cell Line	relative viability
NCI-H322M	0.796
NCI-H358	0.566
NCI-H460	0.959
NCI-H520	0.945
NCI-H596	0.829
NCI-H647	0.943
NCI-H650	0.787
NCI-H661	0.561
NCI-H727	0.868
NCI-H838	0.964
NCI-H1355	0.887
NCI-H1437	0.759
NCI-H1563	1.15
NCI-H1651	1.03
NCI-H1666	0.712
NCI-H1734	1.2
NCI-H1755	1.08
NCI-H1792	0.935

Cell Line	relative viability
NCI-H1915	1.02
NCI-H1944	0.961
NCI-H1975	1.21
NCI-H1993	0.82
NCI-H2009	0.861
NCI-H2023	1.15
NCI-H2085	0.818
NCI-H2087	1.06
NCI-H2126	0.854
NCI-H2228	0.739
NCI-H2347	0.944
NCI-H2405	1.21
NCI-H3122	1.1
PC-3 [JPC-3]	0.411
PC-14	0.391
RERF-LC-KJ	0.748
SK-LU-1	0.639

Same assay, conditions: first compound 0.01581 µM

Cell Line	relative viability
NCI-H322M	0.619
NCI-H358	0.477
NCI-H460	0.932
NCI-H520	0.818
NCI-H596	0.959
NCI-H647	0.98
NCI-H650	0.428
NCI-H661	0.53
NCI-H727	0.822
NCI-H838	0.746
NCI-H1355	0.952
NCI-H1437	0.687
NCI-H1563	0.788
NCI-H1651	0.724
NCI-H1666	0.673
NCI-H1734	0.99
NCI-H1755	0.95

Cell Line	relative viability
NCI-H1792	0.798
NCI-H1915	0.873
NCI-H1944	0.82
NCI-H1975	0.836
NCI-H1993	0.78
NCI-H2009	0.452
NCI-H2023	0.553
NCI-H2085	0.654
NCI-H2087	0.808
NCI-H2126	0.719
NCI-H2228	1.05
NCI-H2347	0.818
NCI-H3122	1.05
PC-3 [JPC-3]	0.448
PC-14	0.33
RERF-LC-KJ	0.8
SK-LU-1	0.859

Same assay, conditions: first compound 0.05 µM

Cell Line	relative viability
NCI-H322M	0.774
NCI-H358	0.452
NCI-H460	1.43
NCI-H520	1.01
NCI-H596	0.326
NCI-H647	0.767
NCI-H650	0.606
NCI-H661	0.716
NCI-H727	0.89
NCI-H838	0.979
NCI-H1355	0.718
NCI-H1437	0.72
NCI-H1563	1.64
NCI-H1651	0.988
NCI-H1666	0.744
NCI-H1734	1.23
NCI-H1755	1.03
NCI-H1792	1.01

Cell Line	relative viability
NCI-H1915	0.89
NCI-H1944	0.882
NCI-H1975	1.2
NCI-H1993	0.843
NCI-H2009	0.62
NCI-H2023	0.462
NCI-H2085	0.731
NCI-H2087	1.08
NCI-H2126	0.75
NCI-H2228	0.34
NCI-H2347	0.712
NCI-H2405	1.01
NCI-H3122	0.413
PC-3 [JPC-3]	0.26
PC-14	0.223
RERF-LC-KJ	0.83
SK-LU-1	0.317

These cell lines were tested with C[C@@H](C(=O)N[C@@H](C1CCCCC1)C(=O)N2CCC[C@H]2C(=O)N[C@@H]3[C@@H](CC4=CC=CC=C34)OCC#CC#CCO[C@@H]5CC6=CC=CC=C6[C@@H]5NC(=O)[C@@H]7CCCN7C(=O)[C@H](C8CCCCC8)NC(=O)[C@H](C)NC)NC [AZD5582] + C[C@@H](Oc1cc(-c2cnn(C3CCNCC3)c2)cnc1N)c1c(Cl)ccc(F)c1Cl [Crizotinib] (partner 1 µM) in the same assay as above. Settings: first compound 0.001581 µM.
In short: as §1

Cell Line	relative viability
NCI-H322M	0.852
NCI-H358	0.505
NCI-H460	0.801
NCI-H520	0.743
NCI-H596	0.902
NCI-H647	0.809
NCI-H650	0.581
NCI-H661	0.902
NCI-H727	0.762
NCI-H838	0.823
NCI-H1355	1.02
NCI-H1437	0.856
NCI-H1563	0.8
NCI-H1651	0.85
NCI-H1666	0.662
NCI-H1734	0.662
NCI-H1755	0.793
NCI-H1792	0.903

Cell Line	relative viability
NCI-H1915	0.854
NCI-H1944	0.914
NCI-H1975	1.07
NCI-H1993	0.824
NCI-H2009	1.01
NCI-H2023	0.567
NCI-H2085	0.732
NCI-H2087	0.689
NCI-H2126	1.04
NCI-H2228	0.623
NCI-H2347	0.657
NCI-H2405	0.785
NCI-H3122	0.264
PC-3 [JPC-3]	0.862
PC-14	0.787
RERF-LC-KJ	0.525
SK-LU-1	0.365

Same assay, conditions: first compound 0.005 µM

Cell Line	relative viability
NCI-H322M	0.944
NCI-H358	0.676
NCI-H460	0.998
NCI-H520	0.709
NCI-H596	0.279
NCI-H647	0.732
NCI-H650	0.393
NCI-H661	0.845
NCI-H727	0.896
NCI-H838	0.914
NCI-H1355	0.857
NCI-H1437	0.713
NCI-H1563	0.86
NCI-H1651	0.91
NCI-H1666	0.817
NCI-H1734	0.717
NCI-H1755	0.846
NCI-H1792	1.01

Cell Line	relative viability
NCI-H1915	0.916
NCI-H1944	1.07
NCI-H1975	1.1
NCI-H1993	0.826
NCI-H2009	1.03
NCI-H2023	0.635
NCI-H2085	0.874
NCI-H2087	0.911
NCI-H2126	0.932
NCI-H2228	0.521
NCI-H2347	0.601
NCI-H2405	0.957
NCI-H3122	0.305
PC-3 [JPC-3]	0.882
PC-14	0.835
RERF-LC-KJ	0.516
SK-LU-1	0.272

Same assay, conditions: first compound 0.01581 µM

Cell Line	relative viability
NCI-H322M	0.636
NCI-H358	0.704
NCI-H460	0.704
NCI-H520	0.729
NCI-H596	1.03
NCI-H647	1.02
NCI-H650	0.591
NCI-H661	1.04
NCI-H727	0.749
NCI-H838	0.746
NCI-H1355	0.982
NCI-H1437	0.858
NCI-H1563	0.852
NCI-H1651	0.854
NCI-H1666	1.01
NCI-H1734	0.682
NCI-H1755	0.86
NCI-H1792	0.908

Cell Line	relative viability
NCI-H1915	0.915
NCI-H1944	1.09
NCI-H1975	0.938
NCI-H1993	0.819
NCI-H2009	0.993
NCI-H2023	0.576
NCI-H2085	0.854
NCI-H2087	0.692
NCI-H2126	0.967
NCI-H2228	0.702
NCI-H2347	0.509
NCI-H2405	0.804
NCI-H3122	0.298
PC-3 [JPC-3]	0.97
PC-14	0.909
RERF-LC-KJ	0.792
SK-LU-1	0.91

Same assay, conditions: first compound 0.05 µM

Cell Line	relative viability
NCI-H322M	1.31
NCI-H358	0.455
NCI-H460	0.94
NCI-H520	0.773
NCI-H596	0.1
NCI-H647	0.327
NCI-H650	0.401
NCI-H661	0.892
NCI-H727	0.721
NCI-H838	1.04
NCI-H1355	1.05
NCI-H1437	0.957
NCI-H1563	0.978
NCI-H1651	0.939
NCI-H1666	0.808
NCI-H1734	0.746
NCI-H1755	0.916
NCI-H1792	1.08

Cell Line	relative viability
NCI-H1915	0.882
NCI-H1944	1.07
NCI-H1975	1.04
NCI-H1993	0.915
NCI-H2009	1.02
NCI-H2023	0.703
NCI-H2085	0.754
NCI-H2087	0.937
NCI-H2126	0.662
NCI-H2228	0.479
NCI-H2347	0.701
NCI-H2405	0.9
NCI-H3122	0.247
PC-3 [JPC-3]	0.314
PC-14	0.742
RERF-LC-KJ	0.782
SK-LU-1	0.152

Each cell line was assayed with C[C@@H](C(=O)N[C@@H](C1CCCCC1)C(=O)N2CCC[C@H]2C(=O)N[C@@H]3[C@@H](CC4=CC=CC=C34)OCC#CC#CCO[C@@H]5CC6=CC=CC=C6[C@@H]5NC(=O)[C@@H]7CCCN7C(=O)[C@H](C8CCCCC8)NC(=O)[C@H](C)NC)NC [AZD5582] + C[C@]1(O)C[C@@H](c2nc(-c3ccc4ccc(-c5ccccc5)nc4c3)c3c(N)nccn32)C1 [Linsitinib] (partner 1 µM) in the same assay as above. Settings: first compound 0.001581 µM.
In short: as §1

Cell Line	relative viability
NCI-H322M	0.871
NCI-H358	0.817
NCI-H460	0.722
NCI-H520	0.808
NCI-H596	1.28
NCI-H647	1.1
NCI-H650	0.649
NCI-H661	0.469
NCI-H727	0.309
NCI-H838	0.973
NCI-H1355	0.774
NCI-H1437	0.862
NCI-H1563	1.23
NCI-H1651	0.894
NCI-H1666	0.779
NCI-H1734	0.953
NCI-H1755	1.01
